The values that follow come from patent US9629363B2, “Pesticidal compositions and processes related thereto” (Dow AgroSciences LLC, priority 2012, dated 2017).

Test [1] deals with Beet Armyworm (BAW) (Spodoptera exigua). Put plainly: Bioassay on beet armyworm (BAW), 128-well diet tray assay. Format: in vivo. The settings on record: for BAW Rating: percent mortality of second instar larvae, 50 μg/cm^2 on artificial diet, five to seven days, 25° C.; for pest or weed control at 50 µg/cm2: Spodoptera exigua, Table 3B, beet armyworm, 128-well diet tray assay, read-out: BAW Rating. On the procedure:
(§1) Certain molecules disclosed in this document were tested against BAW and CEW and CL using procedures described in the following examples. In the reporting of the results, the “BAW & CEW & CL Rating Table” was used (See Table Section).
Bioassays on BAW were conducted using a 128-well diet tray assay. one to five second instar BAW larvae were placed in each well (3 mL) of the diet tray that had been previously filled with 1 mL of artificial diet to which 50 μg/cm^2 of the test compound (dissolved in 50 μL of 90:10 acetone-water mixture) had been applied (to each of eight wells) and then allowed to dry. Trays were covered with a clear self-adhesive cover, and held at 25° C., 14:10 light-dark for five to seven days. Percent mortality was recorded for the larvae in each well; activity in the eight wells was then averaged. The results are indicated in the table entitled “Table 3: Assay Results” (See Table Section).

Test [2] has as its system Cabbage Looper (CL) (Trichoplusia ni). Put plainly: Bioassay on cabbage looper (CL), 128-well diet tray assay. Format: in vivo. The settings on record: Table 3B, read-out: CL Rating. On the procedure: as §1
Bioassays on CL were conducted using a 128-well diet tray assay. One to five second instar CL larvae were placed in each well (3 mL) of the diet tray that had been previously filled with 1 mL of artificial diet to which 50 μg/cm^2 of the test compound (dissolved in 50 μL of 90:10 acetone-water mixture) had been applied (to each of eight wells) and then allowed to dry. Trays were covered with a clear self-adhesive cover, and held at 25° C., 14:10 light-dark for five to seven days. Percent mortality was recorded for the larvae in each well; activity in the eight wells was then averaged. The results are indicated in the table entitled “Table 3A: Assay Results” (See Table Section).

`N#CCN1CCC(NC(=O)c2ccc(/C=C/C(c3cc(Cl)c(Cl)c(Cl)c3)C(F)(F)F)cc2Br)CC1` (stereo not drawn) [AC107]: the “BAW Rating” value in test [1] was “B (More than 0-Less than 50)”. As for `O=C(NC1CCN(C2COC2)CC1)c1ccc(/C=C/C(c2cc(Cl)c(Cl)c(Cl)c2)C(F)(F)F)cc1Br` (stereo not drawn) [AC108, (E)-2-Bromo-N-(1-(oxetan-3-yl)piperidin-4-yl)-4-(4,4,4-trifluoro-3-(3,4,5-trichlorophenyl)but-1-en-1-yl)benzamide], in test [1], the “BAW Rating” value was “B (More than 0-Less than 50)”. With `O=C(NCCc1ccc(Cl)nc1)c1ccc(/C=C/C(c2cc(Cl)c(Cl)c(Cl)c2)C(F)(F)F)cc1Br` (stereo not drawn) [AC113], the “BAW Rating” value in test [1] is listed as “B (More than 0-Less than 50)”. On the same count and under the same terms, the entry for `CCNC(=O)NCc1ccc(/C=C/C(c2cc(Cl)cc(Cl)c2)C(F)(F)F)cc1Cl` (stereo not drawn) [CC31, (E)-1-(2-Chloro-4-(3-(3,5-dichlorophenyl)-4,4,4-trifluorobut-1-en-1-yl)benzyl)-3-ethylurea] is “B (More than 0-Less than 50)”; for `FC(F)(F)C(/C=C/c1ccc(-n2cncn2)cc1)c1ccccc1` (stereo not drawn) [DC3] it is “B (More than 0-Less than 50)”. Turning to `CN(NC(=O)c1ccc(/C=C/C(c2cc(Cl)c(Cl)c(Cl)c2)C(F)(F)F)cc1Br)C(=O)CCC(F)(F)F` (stereo not drawn) [FA1], the pest or weed control at 50 µg/cm2 in test [2] and in test [1] was 50 to 100% each time. For the compound `CN(NC(=O)c1ccc(/C=C/C(c2cc(Cl)c(Cl)c(Cl)c2)C(F)(F)F)cc1Br)C(=O)CC(F)(F)F` (stereo not drawn) [FA2], the pest or weed control at 50 µg/cm2 in test [2] and in test [1] was 50 to 100% each time.

Consider `CN(NC(=O)c1ccc(/C=C/C(c2cc(Cl)c(Cl)c(Cl)c2)C(F)(F)F)cc1C(F)(F)F)C(=O)C1CC1` (stereo not drawn) [FA3], for which the pest or weed control at 50 µg/cm2 in test [2] and in test [1] was 50 to 100% each time. On to `CCC(=O)N(C)NC(=O)c1ccc(/C=C/C(c2cc(Cl)c(Cl)c(Cl)c2)C(F)(F)F)cc1C` (stereo not drawn) [FA4], for which the pest or weed control at 50 µg/cm2 in test [2] and in test [1] was 50 to 100% in each case. Regarding `Cc1cc(/C=C/C(c2cc(Cl)c(Cl)c(Cl)c2)C(F)(F)F)ccc1C(=O)NN(C)C(=O)C1CC1` (stereo not drawn) [FA5], the pest or weed control at 50 µg/cm2 in test [2] and in test [1] was 50 to 100% in each case.

On to `Cc1cc(/C=C/C(c2cc(Cl)c(Cl)c(Cl)c2)C(F)(F)F)ccc1C(=O)NN(C)C(=O)CCC(F)(F)F` (stereo not drawn) [FA6], for which the pest or weed control at 50 µg/cm2 in test [2] and in test [1] was 50 to 100% each time. In the case of `O=C(CC(F)(F)F)NCCNC(=O)c1ccc(/C=C/C(c2cc(Cl)c(Cl)c(Cl)c2)C(F)(F)F)cc1C(F)(F)F` (stereo not drawn) [FA7], the pest or weed control at 50 µg/cm2 in test [2] and in test [1] was 50 to 100% each time. With `CC(C)(CNC(=O)c1ccc(/C=C/C(c2cc(Cl)c(Cl)c(Cl)c2)C(F)(F)F)cc1C(F)(F)F)NC(=O)CC(F)(F)F` (stereo not drawn) [FA8], the pest or weed control at 50 µg/cm2 in test [2] and in test [1] was 50 to 100% in each case. Take `CC(C)(CNC(=O)c1ccc(/C=C/C(c2cc(Cl)c(Cl)c(Cl)c2)C(F)(F)F)cc1C(F)(F)F)NC(=O)C(F)(F)F` (stereo not drawn) [FA9]: in test [2], the pest or weed control at 50 µg/cm2 was in the range of 0 to 50%. As to `O=C(NCCNC(=O)C(F)(F)F)c1ccc(/C=C/C(c2cc(Cl)c(Cl)c(Cl)c2)C(F)(F)F)cc1C(F)(F)F` (stereo not drawn) [FA10], the pest or weed control at 50 µg/cm2 in test [2] and in test [1] was 50 to 100% in each case. `CN(NC(=O)c1ccc(/C=C/C(c2cc(Cl)c(Cl)c(Cl)c2)C(F)(F)F)cc1C(F)(F)F)C(=O)C(F)(F)C(F)(F)C(F)(F)F` (stereo not drawn) [FA11]: the pest or weed control at 50 µg/cm2 in test [2] and in test [1] was 50 to 100% throughout. On to `CCCC(=O)N(C)NC(=O)c1ccc(/C=C/C(c2cc(Cl)c(Cl)c(Cl)c2)C(F)(F)F)cc1C(F)(F)F` (stereo not drawn) [FA12], for which the pest or weed control at 50 µg/cm2 in test [2] and in test [1] was 50 to 100% throughout. On to `CN(NC(=O)c1ccc(/C=C/C(c2cc(Cl)c(Cl)c(Cl)c2)C(F)(F)F)cc1C(F)(F)F)C(=O)CCC(F)(F)F` (stereo not drawn) [FA13], for which the pest or weed control at 50 µg/cm2 in test [2] and in test [1] was 50 to 100% each time.

In the case of `O=C(CCC(F)(F)F)NNC(=O)c1ccc(/C=C/C(c2cc(Cl)c(Cl)c(Cl)c2)C(F)(F)F)cc1C(F)(F)F` (stereo not drawn) [FA14], the pest or weed control at 50 µg/cm2 in test [2] and in test [1] was 50 to 100% in each case.

For the compound `CC(C)(CNC(=O)C(F)(F)F)NC(=O)c1ccc(/C=C/C(c2cc(Cl)c(Cl)c(Cl)c2)C(F)(F)F)cc1C(F)(F)F` (stereo not drawn) [FA15], the pest or weed control at 50 µg/cm2 in test [2] and in test [1] was 50 to 100% throughout. In the case of `CC(C)(CNC(=O)CC(F)(F)F)NC(=O)c1ccc(/C=C/C(c2cc(Cl)c(Cl)c(Cl)c2)C(F)(F)F)cc1C(F)(F)F` (stereo not drawn) [FA16], the pest or weed control at 50 µg/cm2 in test [2] and in test [1] was 50 to 100% throughout.
